Results: US10551384B2, “MTOR kinase mutations and methods of use thereof” (RUTGERS, THE STATE UNIVERSITY OF NEW JERSEY, priority 2016, dated 2020)
Entries after “also recorded” stand apart in the source; their conditions may differ. Like-named read-outs stand apart in the source and are kept apart here.

Tests used:
TOR2-mTOR L2185N mutant = test: Yeast spotting assay for drug resistance, TOR2-mTOR L2185N; type: cell-based, S. cerevisiae; settings: 37° C., with amphotericin B
Description: (§1) FIGS. 4A-C. […] (FIG. 4A) Scheme of a yeast-based screen for drug-resistant mutations in mTOR kinase domain. mTOR kinase domain is amplified by error-prone PCR to generate randomized mutations, which is then recombined in frame into the TOR2-mTOR plasmid by gap-repair in tort-dg cells, and is selected on SC-leucine minus plates. Replica plating is then made onto SC-leucine plates containing DMSO or mTOR kinase inhibitor for selection of drug resistant clones. (FIG. 4B) tor2-dg cells expressing WT or mutant TOR2-mTOR were serially diluted by 10-fold and assayed for sensitivity to different mTOR kinase inhibitors in the presence of amphotericin B. Vector and TOR2 were used as controls. Drug resistant assay was performed at 37° C. in the presence of amphotericin B (except OSI-027). (FIG. 4C) Systematic mutational analysis of L2185 on drug resistance. tort-dg cells expressing WT or mutant TOR2-mTOR carrying all possible mutations at L2185 were serially diluted by 10-fold and tested for sensitivity to different mTOR kinase inhibitors at 37° C.
(§2) To enhance yeast cell permeability, log phase W303 tort-dg cells were spread evenly on SD-Leu agarose plates. After drying, small sterile filter discs were placed on the surface and 5 μl of indicated mTOR inhibitors or DMSO were applied to each disc with or without adding 5 μl of amphotericin B (10 μM), miconazole (50 μM) or caspofungin (50 μM). Plates were incubated at 37° C. for 3 day. Drug resistance profiles of TOR2-mTOR mutant cells were determined by the spotting assay. For this assay, 10-fold serial dilutions of cells were spotted on SD-leu plates in the presence of indicated mTOR inhibitors with or without amphotericin B (200 nM) and incubated at 37° C. for 3 day.

[1] = tested on: mTORC1 and mTORC2 signaling in SW480 mTOR(L2185A) cells; test: mTORC1/mTORC2 signaling immunoblot in SW480 cells carrying L2185A mutant mTOR; type: cell-based, human; settings: various concentrations, 1 hr, immunoblot of P-S6K, P-4E-BP1, P-AKT
Description: (§3) (FIG. 5A) SW480 cells carrying homozygous WT mTOR or L2185A mutant alleles were treated with various concentrations of AZD8055, INK-128, OSI-027 and PP242 for 2 day. Growth of SW480 cells was measured by SRB assay. Data represent means±SD in three independent experiments. (FIG. 5B) SW480 cells carrying homozygous WT and L2185A mutant mTOR allele were treated with a single dose of AZD8055 (100 nM), INK-128 (100 nM), OSI-027 (6,000 nM), and PP242 (2,000 nM) for different times. Cell growth was measured by SRB assay. The drug carrier DMSO was used as a control. Data represent means±SD in three independent experiments. (FIG. 5C) SW480 cells carrying homozygous WT and L2185A mutant mTOR were treated with various concentrations of INK-128, OSI-027, AZD8055 and PP242 for 1 hr. The effect on the level of P-S6K, S6K, P-4E-BP1, 4EB-P1, P-AKT and AKT was analyzed by immunoblot. […] The growth of SW480 cells was measured by SRB assay. Data represent means±SD in three independent experiments.
(§4) Antibodies against tubulin, S6K, phospho-S6K (Thr389), 4E-BP1, phospho-4E-BP1 (Thr37/46), Akt, phospho-Akt (Thr308), and phospho-Akt (Ser473) were purchased from Cell Signaling Technology. […] For drug sensitivity test, cancer cells were seeded in 96-well plates at a density of 2,000 cells per well. 24 hours later, different concentrations of mTOR inhibitors were added in quadruplicate. Cell growth was measured by the sulforhodamine B (SRB) assay as previously described (Vichai, V., and Kirtikara, K. (2006). Nature protocols 1, 1112-1116).

[2] = tested on: SW480 colorectal cancer cells carrying L2185A mutant mTOR alleles; test: SRB growth assay of SW480 cells carrying L2185A mutant mTOR; type: cell-based, human; settings: various concentrations, 2 day
Description: as §3
Cancer cell lines were maintained in DMEM or RPMI 1640, supplemented with 10% fetal bovine serum (Invitrogen) and 1% penicillin/streptomycin (Invitrogen). CRISPR/cas9 technology was used to engineer mutant mTOR allele in SW480 colorectal and H460 lung cancer cells. Briefly, The target sequence for mTOR, […] (SEQ ID NO: 3 was designed through the online tool at crispr.mit.edu, and cloned into pSPCas9(BB)-2A-GFP vector (PX458 in Addgene). Genomic mTOR mutation was engineered using a protocol as described (Ran, et al. (2013). Nature protocols 8, 2281-2308) and was confirmed by targeted sequencing.
as §4

TOR2-mTOR L2185D mutant = test: Yeast spotting assay for drug resistance, TOR2-mTOR L2185D; type: cell-based, S. cerevisiae; settings: 37° C., with amphotericin B
Description: as §1, §2

TOR2-mTOR L2185A mutant = test: Yeast spotting assay for drug resistance, TOR2-mTOR L2185A; type: cell-based, S. cerevisiae
Description: as §1, §2

TOR2-mTOR L2185C mutant = test: Yeast spotting assay for drug resistance, TOR2-mTOR L2185C; type: cell-based, S. cerevisiae
Description: as §1, §2

TOR2-mTOR L2185G mutant = test: Yeast spotting assay for drug resistance, TOR2-mTOR L2185G; type: cell-based, S. cerevisiae; settings: 37° C., with amphotericin B
Description: as §1, §2

[3] = biological target: T1, tor2-dg cells expressing TOR2-mTOR (UniProt P32600+P42345, A1929L/A1944S/A1986S/A2056E/A2073S/C1999R/C2085L/C2133A/D1912T/D1918E/D1933G/D1947H/D2096N/DUP2140-2140/E1921Q/E2000I/E2014H/E2032D/E2033D/E2049A/E2059K/E2080D/G1897S/G1954S/G2046K/G2092K/H1915G/H1958L/H1988Q/H2028Y/H2055Y/H2106N/I1939L/I1957L/I1964L/I1973V/I2021V/K1928N/K1993S/K1996E/K2045E/K2066R/K2087N/K2095S/L1923M/L1952I/L1956S/L1995I/L2037Q/L2103I/M2010E/M2011L/M2026Q/M2058L/M2079N/M2089K/M2132S/N1898S/N1899S/N1920T/N1989K/N1992L/N1997K/N2003P/N2071Q/N2093D/P1951Q/Q1937E/Q1959S/Q2007D/Q2063E/Q2072N/Q2082Y/R1890H/R1896E/R1950N/R1966K/R2042H/R2086M/R2110K/R2134H/S1980I/S2112G/S2120T/T1903A/T1948Q/T1962S/T1977M/T1983E/T1984S/T1985L/T2004V/T2068I/T2098N/T2119Q/V1906L/V1919A/V1924H/V1927F/V2019M/V2044T/V2050A/W1916I/Y1913F/Y1967A/Y2038F/Y2074F/Y2125H); test: Disc halo assay of tor2-dg cells expressing TOR2-mTOR, with or without antifungal permeability enhancers; type: cell-based, S. cerevisiae; settings: filter discs supplemented with amphotericin B (10 μM), miconazole (50 μM) or caspofungin (50 μM); 37° C., 3 day
T1 construct: fused in frame with mTOR kinase domain (2140-2549 aa); yeast TOR2 N-terminus (1-2080 aa); expressed in transfected cells; host or cells: S. cerevisiae W303 tor2-dg, centromeric plasmid derived from pML40-TOR2
T1 sequence (P32600+P42345 fused with the stated changes): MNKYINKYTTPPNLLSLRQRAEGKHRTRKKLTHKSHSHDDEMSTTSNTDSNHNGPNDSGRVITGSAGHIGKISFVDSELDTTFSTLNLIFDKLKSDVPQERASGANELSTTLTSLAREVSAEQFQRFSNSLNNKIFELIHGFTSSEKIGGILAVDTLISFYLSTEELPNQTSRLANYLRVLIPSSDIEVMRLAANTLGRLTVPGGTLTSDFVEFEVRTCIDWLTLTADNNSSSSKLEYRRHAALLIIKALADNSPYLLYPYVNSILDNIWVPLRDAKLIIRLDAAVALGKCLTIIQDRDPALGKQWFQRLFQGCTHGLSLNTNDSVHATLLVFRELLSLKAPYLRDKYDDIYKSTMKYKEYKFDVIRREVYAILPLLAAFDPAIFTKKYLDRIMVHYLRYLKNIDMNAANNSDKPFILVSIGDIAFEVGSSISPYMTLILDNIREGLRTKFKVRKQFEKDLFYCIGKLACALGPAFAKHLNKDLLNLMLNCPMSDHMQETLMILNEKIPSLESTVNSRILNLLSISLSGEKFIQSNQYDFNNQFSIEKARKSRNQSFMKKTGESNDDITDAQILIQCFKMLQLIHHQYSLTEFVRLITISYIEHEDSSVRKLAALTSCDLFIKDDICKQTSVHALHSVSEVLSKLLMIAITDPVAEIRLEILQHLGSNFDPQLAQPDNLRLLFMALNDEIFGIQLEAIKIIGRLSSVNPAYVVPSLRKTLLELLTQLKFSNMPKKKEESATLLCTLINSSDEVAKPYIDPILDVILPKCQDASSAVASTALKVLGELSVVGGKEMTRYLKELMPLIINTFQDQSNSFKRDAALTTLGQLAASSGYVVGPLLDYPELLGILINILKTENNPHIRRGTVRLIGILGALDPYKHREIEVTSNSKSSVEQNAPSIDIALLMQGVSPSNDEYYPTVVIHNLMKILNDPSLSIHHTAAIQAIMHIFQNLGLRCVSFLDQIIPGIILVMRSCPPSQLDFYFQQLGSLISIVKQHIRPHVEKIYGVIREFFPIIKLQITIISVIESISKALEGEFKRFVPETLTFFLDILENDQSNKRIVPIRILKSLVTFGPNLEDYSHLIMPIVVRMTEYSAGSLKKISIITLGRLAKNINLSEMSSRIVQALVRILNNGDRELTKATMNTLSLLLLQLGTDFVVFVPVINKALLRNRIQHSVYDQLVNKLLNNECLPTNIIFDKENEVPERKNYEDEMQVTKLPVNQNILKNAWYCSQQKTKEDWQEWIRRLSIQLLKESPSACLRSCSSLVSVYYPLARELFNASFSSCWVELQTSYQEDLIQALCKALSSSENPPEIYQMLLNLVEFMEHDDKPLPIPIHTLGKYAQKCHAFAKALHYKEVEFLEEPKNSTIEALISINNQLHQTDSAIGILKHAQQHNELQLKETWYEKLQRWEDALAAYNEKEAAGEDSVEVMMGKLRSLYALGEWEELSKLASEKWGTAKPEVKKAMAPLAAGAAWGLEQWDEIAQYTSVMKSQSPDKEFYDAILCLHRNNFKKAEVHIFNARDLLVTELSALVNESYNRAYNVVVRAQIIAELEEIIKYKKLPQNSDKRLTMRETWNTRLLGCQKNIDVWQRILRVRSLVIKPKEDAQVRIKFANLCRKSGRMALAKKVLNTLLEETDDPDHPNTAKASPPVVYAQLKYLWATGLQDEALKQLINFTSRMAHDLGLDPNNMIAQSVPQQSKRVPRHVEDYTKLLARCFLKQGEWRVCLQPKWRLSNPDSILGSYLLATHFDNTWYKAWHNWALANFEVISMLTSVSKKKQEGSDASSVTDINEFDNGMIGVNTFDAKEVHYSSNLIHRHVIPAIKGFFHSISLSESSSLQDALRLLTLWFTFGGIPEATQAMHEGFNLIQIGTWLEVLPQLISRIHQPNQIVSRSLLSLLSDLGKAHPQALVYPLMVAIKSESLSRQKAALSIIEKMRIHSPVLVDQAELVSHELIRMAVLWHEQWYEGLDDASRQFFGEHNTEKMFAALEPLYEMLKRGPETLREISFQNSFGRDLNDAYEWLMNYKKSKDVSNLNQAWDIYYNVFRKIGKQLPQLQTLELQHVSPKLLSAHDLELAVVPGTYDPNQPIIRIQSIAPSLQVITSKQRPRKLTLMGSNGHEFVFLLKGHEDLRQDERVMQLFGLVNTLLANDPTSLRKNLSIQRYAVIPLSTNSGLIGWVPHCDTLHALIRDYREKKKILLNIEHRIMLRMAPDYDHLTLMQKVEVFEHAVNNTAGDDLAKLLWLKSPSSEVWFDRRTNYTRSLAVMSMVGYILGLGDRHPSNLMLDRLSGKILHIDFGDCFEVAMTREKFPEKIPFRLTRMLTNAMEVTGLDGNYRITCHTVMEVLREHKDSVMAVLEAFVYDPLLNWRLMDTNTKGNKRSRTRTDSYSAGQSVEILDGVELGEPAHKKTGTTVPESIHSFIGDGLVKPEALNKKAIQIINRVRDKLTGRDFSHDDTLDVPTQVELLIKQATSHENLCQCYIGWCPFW
T1 sequence (P41318 whole entry partner): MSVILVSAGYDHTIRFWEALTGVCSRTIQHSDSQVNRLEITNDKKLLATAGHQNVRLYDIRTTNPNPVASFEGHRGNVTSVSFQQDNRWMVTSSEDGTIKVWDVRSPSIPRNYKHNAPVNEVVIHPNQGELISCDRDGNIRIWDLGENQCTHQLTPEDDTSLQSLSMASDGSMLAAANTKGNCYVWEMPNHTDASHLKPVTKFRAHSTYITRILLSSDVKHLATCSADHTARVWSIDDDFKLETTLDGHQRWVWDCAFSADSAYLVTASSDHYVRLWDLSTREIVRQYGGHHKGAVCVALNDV
Description: FIGS. 2A-C. Enhancement of yeast cell permeability to structurally diverse mTOR kinase inhibitors by amphotericin B. (FIG. 2A) tor2-dg cells expressing TOR2-mTOR were spread on synthetic complete (SC)-leucine plate and tested for drug sensitivity by disc halo assay using filter discs containing different mTOR kinase inhibitors supplemented with the drug carrier DMSO or amphotericin B (10 μM). (FIG. 2B) Similar to FIG. 2A except the filter discs were supplemented with miconazole (50 μM). (FIG. 2C) Similar to FIG. 2A except the filter discs were supplemented with caspofungin (50 μM).
as §2

[4] = 37° C., amphotericin B present (except OSI-027)

Structure (SMILES)	drug resistance of TOR2-mTOR L2185N mutant yeast (TOR2-mTOR L2185N mutant)	drug resistance/sensitivity of cell growth, SW480 L2185A vs WT [2]	drug resistance of TOR2-mTOR L2185D mutant yeast (TOR2-mTOR L2185D mutant)	drug resistance of TOR2-mTOR L2185G mutant yeast (TOR2-mTOR L2185G mutant)	effect of antifungal drug on yeast sensitivity to mTOR kinase inhibitors [3]	also measured
COc1ccc(-c2ccc3c(N4CCOC[C@@H]4C)nc(N4CCOC[C@@H]4C)nc3n2)cc1CO [AZD8055]	moderately resistant	confers resistance	moderately resistant	moderately resistant		drug resistance of mTORC1 and mTORC2 signaling, SW480 L2185A vs WT [1]: drug-resistant signaling by both mTORC1 and mTORC2; drug resistance/sensitivity of TOR2-mTOR L2185A mutant yeast (TOR2-mTOR L2185A mutant; [4]): confer resistance; also recorded: conferring resistance; drug resistance/sensitivity of TOR2-mTOR L2185C mutant yeast (TOR2-mTOR L2185C mutant; [4]): confer resistance; also recorded: conferring resistance
C[C@@H]1[C@H](O)[C@@H](C)/C=C/C=C/C=C/C=C/C=C/C=C/C=C/[C@H](O[C@@H]2O[C@H](C)[C@@H](O)[C@H](N)[C@@H]2O)C[C@@H]2O[C@](O)(C[C@@H](O)C[C@@H](O)[C@H](O)CC[C@@H](O)C[C@@H](O)CC(=O)O[C@H]1C)C[C@H](O)[C@H]2C(=O)O [Amphotericin B]					increases yeast sensitivity to most of mTOR kinase inhibitors	
Clc1ccc(COC(Cn2ccnc2)c2ccc(Cl)cc2Cl)c(Cl)c1 (centres unmarked) [miconazole]					fail to do so	
CC[C@H](C)C[C@H](C)CCCCCCCCC(=O)N[C@H]1C[C@@H](O)[C@@H](NCCN)NC(=O)[C@@H]2[C@@H](O)CCN2C(=O)[C@H]([C@H](O)CCN)NC(=O)[C@H]([C@H](O)[C@@H](O)c2ccc(O)cc2)NC(=O)[C@@H]2C[C@@H](O)CN2C(=O)[C@H]([C@@H](C)O)NC1=O [caspofungin]					fail to do so	
COc1ccc(-c2cc3c(C)nc(N)nc3n([C@H]3CC[C@H](OCCO)CC3)c2=O)cn1 [PF-04691502]	moderately resistant	still sensitive	moderately resistant	moderately resistant		drug resistance/sensitivity of TOR2-mTOR L2185A mutant yeast (TOR2-mTOR L2185A mutant; [4]): confers resistance; also recorded: conferring resistance; drug resistance/sensitivity of TOR2-mTOR L2185C mutant yeast (TOR2-mTOR L2185C mutant; [4]): confer resistance; also recorded: conferring resistance
CN(C)C1CCN(C(=O)c2ccc(NC(=O)Nc3ccc(-c4nc(N5CCOCC5)nc(N5CCOCC5)n4)cc3)cc2)CC1 [PKI-587]	moderately resistant		moderately resistant	moderately resistant		drug resistance/sensitivity of TOR2-mTOR L2185A mutant yeast (TOR2-mTOR L2185A mutant): conferring resistance; drug resistance/sensitivity of TOR2-mTOR L2185C mutant yeast (TOR2-mTOR L2185C mutant): conferring resistance
CC(C)n1nc(-c2cc3cc(O)ccc3[nH]2)c2c(N)ncnc21 [PP242]		confers resistance				drug resistance of mTORC1 and mTORC2 signaling, SW480 L2185A vs WT [1]: drug-resistant signaling by both mTORC1 and mTORC2
